Source: PMC8632988, “Inhibition of SYK and cSrc kinases can protect bone and cartilage in preclinical models of osteoarthritis and rheumatoid arthritis” (Scientific Reports, 2021)
Values joined by “and” are separate entries in the source; they are usually repeats but may differ in a detail not shown here. Equal entries are not always repeated. Where two headings read alike, the source gives them in different places.

Tests used:
Assay in all cases: Kinase selectivity profile assay
Assay type in all cases: biochemical
LIMK2 = biological target: T1, LIMK2 (Homo sapiens, UniProt P53671); conditions: 500 nM; relative to DMSO; read-out: Residual enzymatic activity
T1 construct: purchased Reaction Biology Corporation
Summary of the method: (§1)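 Radiometric kinase assay run by a standard protocol. Unbound phosphate was removed by washing filters in phosphoric acid, and product radioactivity gave percent remaining kinase activity versus DMSO vehicle reactions. Run in duplicate.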

PLK3 = biological target: T2, PLK3 (Homo sapiens, UniProt Q9H4B4); conditions: 500 nM; relative to DMSO; read-out: Residual enzymatic activity
T2 construct: purchased Reaction Biology Corporation
Summary of the method: as §1

AKT3 = biological target: T3, AKT3 (Homo sapiens, UniProt Q9Y243); conditions: 500 nM; relative to DMSO; read-out: Residual enzymatic activity
T3 construct: purchased Reaction Biology Corporation
Summary of the method: as §1

CDK4/cyclin D1 = biological target: T4, CDK4/cyclin D1 (Homo sapiens, UniProt P11802); conditions: read-out: Residual enzymatic activity
T4 construct: purchased Reaction Biology Corporation
Summary of the method: as §1

MLK1/MAP3K9 = biological target: T5, MLK1/MAP3K9 (Homo sapiens, UniProt P80192); conditions: for remaining activity at 0.5 µM: 500 nM, relative to DMSO, read-out: Residual enzymatic activity
T5 construct: purchased Reaction Biology Corporation (assay service)
T5 sequence (P80192 whole entry): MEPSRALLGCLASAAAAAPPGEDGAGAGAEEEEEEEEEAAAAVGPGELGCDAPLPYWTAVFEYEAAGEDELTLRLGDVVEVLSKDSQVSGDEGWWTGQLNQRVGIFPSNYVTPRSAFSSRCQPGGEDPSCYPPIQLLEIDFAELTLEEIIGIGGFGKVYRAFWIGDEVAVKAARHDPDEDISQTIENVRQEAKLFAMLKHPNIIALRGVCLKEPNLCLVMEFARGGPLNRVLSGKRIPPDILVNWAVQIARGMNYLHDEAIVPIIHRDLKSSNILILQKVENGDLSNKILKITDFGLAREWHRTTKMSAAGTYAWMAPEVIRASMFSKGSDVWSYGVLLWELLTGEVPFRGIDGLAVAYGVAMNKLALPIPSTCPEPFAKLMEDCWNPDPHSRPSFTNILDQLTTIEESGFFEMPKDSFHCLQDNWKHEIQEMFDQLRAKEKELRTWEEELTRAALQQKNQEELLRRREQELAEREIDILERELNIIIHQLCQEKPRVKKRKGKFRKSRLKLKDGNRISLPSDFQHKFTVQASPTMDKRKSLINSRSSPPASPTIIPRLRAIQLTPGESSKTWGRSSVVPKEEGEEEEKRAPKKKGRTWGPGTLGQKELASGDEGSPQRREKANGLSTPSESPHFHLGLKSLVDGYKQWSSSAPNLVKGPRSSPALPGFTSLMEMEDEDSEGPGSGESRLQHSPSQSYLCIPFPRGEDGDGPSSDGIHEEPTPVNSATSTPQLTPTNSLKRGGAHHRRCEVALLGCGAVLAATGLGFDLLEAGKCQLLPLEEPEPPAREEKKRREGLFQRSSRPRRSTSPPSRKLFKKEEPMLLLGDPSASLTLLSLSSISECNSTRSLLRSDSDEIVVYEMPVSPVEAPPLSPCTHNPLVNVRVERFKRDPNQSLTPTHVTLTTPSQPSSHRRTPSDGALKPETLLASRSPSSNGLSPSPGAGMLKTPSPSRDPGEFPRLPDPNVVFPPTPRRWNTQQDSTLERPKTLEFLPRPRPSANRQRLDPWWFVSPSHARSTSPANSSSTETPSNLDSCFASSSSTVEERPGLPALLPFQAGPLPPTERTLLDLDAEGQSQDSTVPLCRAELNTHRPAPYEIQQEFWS
Summary of the method: as §1

STK25/YSK1 = biological target: T6, STK25/YSK1 (Homo sapiens, UniProt O00506); conditions: 500 nM; relative to DMSO; read-out: Residual enzymatic activity
T6 construct: purchased Reaction Biology Corporation
Summary of the method: as §1

ROCK1 = biological target: T7, ROCK1 (Homo sapiens, UniProt Q13464); conditions: 500 nM; relative to DMSO; read-out: Residual enzymatic activity
T7 construct: purchased Reaction Biology Corporation
Summary of the method: as §1

LIMK1 = biological target: T8, LIMK1 (Homo sapiens, UniProt P53667); conditions: for remaining activity at 0.5 µM: 500 nM, relative to DMSO, read-out: Residual enzymatic activity
T8 construct: purchased Reaction Biology Corporation (assay service)
T8 sequence (P53667 whole entry): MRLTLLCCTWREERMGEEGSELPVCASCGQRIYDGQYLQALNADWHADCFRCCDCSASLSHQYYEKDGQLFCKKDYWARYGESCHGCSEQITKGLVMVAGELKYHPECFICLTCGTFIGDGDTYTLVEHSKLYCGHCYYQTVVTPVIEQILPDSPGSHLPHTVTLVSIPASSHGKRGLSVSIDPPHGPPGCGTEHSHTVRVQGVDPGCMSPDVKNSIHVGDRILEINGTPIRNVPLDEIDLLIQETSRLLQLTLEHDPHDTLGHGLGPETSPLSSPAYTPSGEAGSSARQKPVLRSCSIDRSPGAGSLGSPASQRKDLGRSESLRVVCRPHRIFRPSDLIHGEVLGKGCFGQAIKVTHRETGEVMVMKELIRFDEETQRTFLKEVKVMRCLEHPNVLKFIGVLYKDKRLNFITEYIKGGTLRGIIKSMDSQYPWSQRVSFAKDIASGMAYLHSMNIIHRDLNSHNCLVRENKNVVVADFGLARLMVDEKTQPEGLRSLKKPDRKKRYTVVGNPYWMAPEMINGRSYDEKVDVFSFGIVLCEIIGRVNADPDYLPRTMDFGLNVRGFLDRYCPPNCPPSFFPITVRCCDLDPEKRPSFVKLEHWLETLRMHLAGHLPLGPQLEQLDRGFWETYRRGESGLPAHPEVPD
Summary of the method: as §1

ROCK2 = biological target: T9, ROCK2 (Homo sapiens, UniProt O75116); conditions: 500 nM; relative to DMSO; read-out: Residual enzymatic activity
T9 construct: purchased Reaction Biology Corporation
T9 sequence (O75116 whole entry): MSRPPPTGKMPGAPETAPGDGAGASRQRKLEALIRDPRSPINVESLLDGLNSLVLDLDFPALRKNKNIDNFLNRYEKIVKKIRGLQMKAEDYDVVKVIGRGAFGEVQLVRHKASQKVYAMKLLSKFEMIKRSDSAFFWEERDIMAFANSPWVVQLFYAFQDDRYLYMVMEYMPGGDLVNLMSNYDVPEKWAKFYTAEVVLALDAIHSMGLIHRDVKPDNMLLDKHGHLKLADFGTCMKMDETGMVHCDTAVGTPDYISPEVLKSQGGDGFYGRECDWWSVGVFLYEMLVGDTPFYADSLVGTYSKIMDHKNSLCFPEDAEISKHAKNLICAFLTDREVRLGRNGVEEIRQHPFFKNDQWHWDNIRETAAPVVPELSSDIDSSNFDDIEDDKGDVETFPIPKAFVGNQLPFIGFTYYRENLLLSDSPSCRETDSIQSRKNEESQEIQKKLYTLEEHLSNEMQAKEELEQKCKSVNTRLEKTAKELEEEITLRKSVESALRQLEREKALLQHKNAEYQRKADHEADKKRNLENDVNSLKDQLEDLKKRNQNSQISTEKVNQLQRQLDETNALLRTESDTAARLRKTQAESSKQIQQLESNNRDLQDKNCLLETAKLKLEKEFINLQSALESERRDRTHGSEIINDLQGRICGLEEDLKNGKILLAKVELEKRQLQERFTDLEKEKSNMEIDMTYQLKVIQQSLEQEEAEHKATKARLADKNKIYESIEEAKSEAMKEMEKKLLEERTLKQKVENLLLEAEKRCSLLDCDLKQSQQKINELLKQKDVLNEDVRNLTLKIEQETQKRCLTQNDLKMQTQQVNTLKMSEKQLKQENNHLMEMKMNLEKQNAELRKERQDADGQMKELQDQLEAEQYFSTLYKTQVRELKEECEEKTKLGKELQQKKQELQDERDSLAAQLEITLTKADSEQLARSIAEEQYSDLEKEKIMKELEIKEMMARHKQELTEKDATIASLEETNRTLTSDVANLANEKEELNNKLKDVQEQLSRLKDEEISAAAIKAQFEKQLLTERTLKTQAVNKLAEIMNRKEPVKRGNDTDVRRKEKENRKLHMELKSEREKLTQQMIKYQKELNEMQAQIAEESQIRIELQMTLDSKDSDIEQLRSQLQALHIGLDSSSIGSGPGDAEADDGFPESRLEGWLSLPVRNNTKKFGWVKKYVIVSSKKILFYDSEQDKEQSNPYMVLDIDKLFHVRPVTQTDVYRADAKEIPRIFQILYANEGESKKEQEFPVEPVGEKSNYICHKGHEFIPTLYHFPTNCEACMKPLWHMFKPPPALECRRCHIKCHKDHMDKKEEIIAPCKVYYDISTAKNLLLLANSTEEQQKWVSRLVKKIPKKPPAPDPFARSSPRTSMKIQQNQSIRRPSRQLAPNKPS
Summary of the method: as §1

PKCepsilon = biological target: T10, PKCepsilon (Homo sapiens, UniProt Q02156); conditions: 500 nM; relative to DMSO; read-out: Residual enzymatic activity
T10 construct: purchased Reaction Biology Corporation
Summary of the method: as §1

BRSK2 = biological target: T11, BRSK2 (Homo sapiens, UniProt Q8IWQ3); conditions: 500 nM; relative to DMSO; read-out: Residual enzymatic activity
T11 construct: purchased Reaction Biology Corporation
Summary of the method: as §1

PKCeta = biological target: T12, PKCeta (Homo sapiens, UniProt P24723); conditions: 500 nM; relative to DMSO; read-out: Residual enzymatic activity
T12 construct: purchased Reaction Biology Corporation
Summary of the method: as §1

PKG1a = biological target: T13, PKG1a (Homo sapiens, UniProt Q13976); conditions: 500 nM; relative to DMSO; read-out: Residual enzymatic activity
T13 construct: purchased Reaction Biology Corporation
Summary of the method: as §1

RON/MST1R = biological target: T14, RON/MST1R (Homo sapiens, UniProt Q04912); conditions: 500 nM; relative to DMSO; read-out: Residual enzymatic activity
T14 construct: purchased Reaction Biology Corporation
Summary of the method: as §1

SLK/STK2 = biological target: T15, SLK/STK2 (Homo sapiens, UniProt Q9H2G2); conditions: 500 nM; relative to DMSO; read-out: Residual enzymatic activity
T15 construct: purchased Reaction Biology Corporation
T15 sequence (Q9H2G2 whole entry): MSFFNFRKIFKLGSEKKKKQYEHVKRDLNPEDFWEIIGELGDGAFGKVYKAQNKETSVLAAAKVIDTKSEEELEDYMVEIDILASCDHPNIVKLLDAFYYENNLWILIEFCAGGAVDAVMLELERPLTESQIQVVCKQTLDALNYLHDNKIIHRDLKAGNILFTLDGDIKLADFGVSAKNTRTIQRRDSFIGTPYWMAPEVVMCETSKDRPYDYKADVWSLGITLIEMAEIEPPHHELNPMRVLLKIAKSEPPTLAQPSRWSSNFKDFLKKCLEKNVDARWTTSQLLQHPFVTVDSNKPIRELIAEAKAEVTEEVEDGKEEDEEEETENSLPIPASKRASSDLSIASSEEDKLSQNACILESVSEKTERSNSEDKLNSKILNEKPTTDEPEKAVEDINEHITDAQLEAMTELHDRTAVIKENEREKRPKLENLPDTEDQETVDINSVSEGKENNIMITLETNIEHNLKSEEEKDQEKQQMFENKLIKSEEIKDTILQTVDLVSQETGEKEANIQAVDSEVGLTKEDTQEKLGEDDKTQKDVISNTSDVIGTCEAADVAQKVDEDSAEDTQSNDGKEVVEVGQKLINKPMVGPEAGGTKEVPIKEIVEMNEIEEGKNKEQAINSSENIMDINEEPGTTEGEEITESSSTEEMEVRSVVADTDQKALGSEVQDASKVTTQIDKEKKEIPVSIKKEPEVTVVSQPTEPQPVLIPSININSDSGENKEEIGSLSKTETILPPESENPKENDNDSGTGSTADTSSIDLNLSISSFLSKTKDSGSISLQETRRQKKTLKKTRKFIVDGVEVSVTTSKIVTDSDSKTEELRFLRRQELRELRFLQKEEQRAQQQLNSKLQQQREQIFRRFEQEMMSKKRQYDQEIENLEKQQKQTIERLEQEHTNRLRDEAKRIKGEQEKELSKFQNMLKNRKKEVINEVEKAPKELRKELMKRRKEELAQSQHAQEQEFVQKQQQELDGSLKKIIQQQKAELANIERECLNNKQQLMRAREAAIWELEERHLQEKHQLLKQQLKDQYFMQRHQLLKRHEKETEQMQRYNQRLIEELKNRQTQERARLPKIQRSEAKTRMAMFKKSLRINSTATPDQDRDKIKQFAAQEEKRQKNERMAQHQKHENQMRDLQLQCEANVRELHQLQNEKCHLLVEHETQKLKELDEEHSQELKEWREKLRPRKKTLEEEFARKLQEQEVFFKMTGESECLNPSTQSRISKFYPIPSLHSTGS
Summary of the method: as §1

TIE2/TEK = biological target: T16, TIE2/TEK (Homo sapiens, UniProt Q02763); conditions: 500 nM, relative to DMSO
T16 construct: purchased Reaction Biology Corporation
Summary of the method: as §1

GRK1 = biological target: T17, GRK1 (Homo sapiens, UniProt Q15835); conditions: 500 nM; relative to DMSO; read-out: Residual enzymatic activity
T17 construct: purchased Reaction Biology Corporation
Summary of the method: as §1

VRK1 = biological target: T18, VRK1 (Homo sapiens, UniProt Q99986); conditions: 500 nM; relative to DMSO; read-out: Residual enzymatic activity
T18 construct: purchased Reaction Biology Corporation
Summary of the method: as §1

STK32C/YANK3 = biological target: T19, STK32C/YANK3 (Homo sapiens, UniProt Q86UX6); conditions: 500 nM; relative to DMSO; read-out: Residual enzymatic activity
T19 construct: purchased Reaction Biology Corporation
Summary of the method: as §1

PHKg1 = biological target: T20, PHKg1 (Homo sapiens, UniProt Q16816); conditions: 500 nM; relative to DMSO; read-out: Residual enzymatic activity
T20 construct: purchased Reaction Biology Corporation
T20 sequence (Q16816 whole entry): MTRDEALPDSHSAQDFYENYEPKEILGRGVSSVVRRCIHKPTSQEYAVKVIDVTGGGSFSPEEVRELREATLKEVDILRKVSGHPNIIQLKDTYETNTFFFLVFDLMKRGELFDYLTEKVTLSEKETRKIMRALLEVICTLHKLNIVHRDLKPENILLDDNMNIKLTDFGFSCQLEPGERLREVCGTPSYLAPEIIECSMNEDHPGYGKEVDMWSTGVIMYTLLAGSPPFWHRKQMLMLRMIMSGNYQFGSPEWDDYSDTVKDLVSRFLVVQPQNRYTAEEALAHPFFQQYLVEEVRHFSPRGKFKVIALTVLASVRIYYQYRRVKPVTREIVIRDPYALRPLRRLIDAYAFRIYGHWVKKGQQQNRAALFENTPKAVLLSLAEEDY
Summary of the method: as §1

GSK3a = biological target: T21, GSK3a (Homo sapiens, UniProt P49840); conditions: 500 nM; relative to DMSO; read-out: Residual enzymatic activity
T21 construct: purchased Reaction Biology Corporation
Summary of the method: as §1

ALK1/ACVRL1 = biological target: T22, ALK1/ACVRL1 (Homo sapiens, UniProt P37023); conditions: 500 nM; relative to DMSO; read-out: Residual enzymatic activity
T22 construct: purchased Reaction Biology Corporation
Summary of the method: as §1

MRCKa/CDC42BPA = biological target: T23, MRCKa/CDC42BPA (Homo sapiens, UniProt Q5VT25); conditions: read-out: Residual enzymatic activity
T23 construct: purchased Reaction Biology Corporation
Summary of the method: as §1

IRR/INSRR = biological target: T24, IRR/INSRR (Homo sapiens, UniProt P14616); conditions: 500 nM; relative to DMSO; read-out: Residual enzymatic activity
T24 construct: purchased Reaction Biology Corporation
Summary of the method: as §1

TNIK = biological target: T25, TNIK (Homo sapiens, UniProt Q9UKE5); conditions: 500 nM; relative to DMSO; read-out: Residual enzymatic activity
T25 construct: purchased Reaction Biology Corporation
Summary of the method: as §1

PBK/TOPK = biological target: T26, PBK/TOPK (Homo sapiens, UniProt Q96KB5); conditions: 500 nM; relative to DMSO; read-out: Residual enzymatic activity
T26 construct: purchased Reaction Biology Corporation
T26 sequence (Q96KB5 whole entry): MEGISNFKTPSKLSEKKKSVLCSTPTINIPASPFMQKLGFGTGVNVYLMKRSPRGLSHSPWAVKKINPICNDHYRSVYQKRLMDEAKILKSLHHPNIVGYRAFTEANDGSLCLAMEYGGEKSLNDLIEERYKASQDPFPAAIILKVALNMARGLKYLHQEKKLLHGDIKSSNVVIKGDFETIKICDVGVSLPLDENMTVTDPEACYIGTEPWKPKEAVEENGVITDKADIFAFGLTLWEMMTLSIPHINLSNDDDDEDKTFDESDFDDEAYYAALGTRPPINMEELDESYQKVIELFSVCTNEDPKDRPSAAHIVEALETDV
Summary of the method: as §1

P38d/MAPK13 = biological target: T27, P38d/MAPK13 (Homo sapiens, UniProt O15264); conditions: 500 nM; relative to DMSO; read-out: Residual enzymatic activity
T27 construct: purchased Reaction Biology Corporation
Summary of the method: as §1

SRPK1 = biological target: T28, SRPK1 (Homo sapiens, UniProt Q96SB4); conditions: 500 nM; relative to DMSO; read-out: Residual enzymatic activity
T28 construct: purchased Reaction Biology Corporation
Summary of the method: as §1

STK32B/YANK2 = biological target: T29, STK32B/YANK2 (Homo sapiens, UniProt Q9NY57); conditions: 500 nM; relative to DMSO; read-out: Residual enzymatic activity
T29 construct: purchased Reaction Biology Corporation
Summary of the method: as §1

STK39/STLK3 = biological target: T30, STK39/STLK3 (Homo sapiens, UniProt Q9UEW8); conditions: 500 nM; relative to DMSO; read-out: Residual enzymatic activity
T30 construct: purchased Reaction Biology Corporation
Summary of the method: as §1

CDC7/DBF4 = biological target: T31, CDC7/DBF4 (Homo sapiens, UniProt O00311); conditions: 500 nM; relative to DMSO; read-out: Residual enzymatic activity
T31 construct: purchased Reaction Biology Corporation
Summary of the method: as §1

ERK5/MAPK7 = biological target: T32, ERK5/MAPK7 (Homo sapiens, UniProt Q13164); conditions: 500 nM; relative to DMSO; read-out: Residual enzymatic activity
T32 construct: purchased Reaction Biology Corporation
Summary of the method: as §1

BMPR2 = biological target: T33, BMPR2 (Homo sapiens, UniProt Q13873); conditions: 500 nM; relative to DMSO; read-out: Residual enzymatic activity
T33 construct: purchased Reaction Biology Corporation
Summary of the method: as §1

TSSK2 = biological target: T34, TSSK2 (Homo sapiens, UniProt Q96PF2); conditions: 500 nM; relative to DMSO; read-out: Residual enzymatic activity
T34 construct: purchased Reaction Biology Corporation
Summary of the method: as §1

PAK6 = biological target: T35, PAK6 (Homo sapiens, UniProt Q9NQU5); conditions: 500 nM; relative to DMSO; read-out: Residual enzymatic activity
T35 construct: purchased Reaction Biology Corporation
Summary of the method: as §1

CK1d = biological target: T36, CK1d (Homo sapiens, UniProt P48730); conditions: 500 nM; relative to DMSO; read-out: Residual enzymatic activity
T36 construct: purchased Reaction Biology Corporation
Summary of the method: as §1

[1] = 10-dose mode, threefold serial dilution from 10 μM

COc1cc(Nc2ncc(F)c(Nc3ccc4c(n3)NC(=O)C(C)(C)O4)n2)cc(OC)c1OC [R406, reference compound]
remaining activity at 0.5 µM (LIMK2): 77.5% | remaining activity at 0.5 µM (PLK3): 53.1% | remaining activity at 0.5 µM (AKT3): 95.2% | remaining activity at 0.5 µM (CDK4/cyclin D1): 104% | remaining activity at 0.5 µM (MLK1/MAP3K9): 6.3% | remaining activity at 0.5 µM (STK25/YSK1): 90.7% | remaining activity at 0.5 µM (ROCK1): 87% | remaining activity at 0.5 µM (LIMK1): 7.2% | remaining activity at 0.5 µM (ROCK2): 77.6% | remaining activity at 0.5 µM (PKCepsilon): 95% | remaining activity at 0.5 µM (BRSK2): 84.2% | remaining activity at 0.5 µM (PKCeta): 96.6% | remaining activity at 0.5 µM (PKG1a): 85.4% | remaining activity at 0.5 µM (RON/MST1R): 47.9% | remaining activity at 0.5 µM (SLK/STK2): 31.4% | remaining activity at 0.5 µM (TIE2/TEK; read-out: Residual enzymatic activity): 69.9% | remaining activity at 0.5 µM (GRK1): 96% | remaining activity at 0.5 µM (VRK1): 98.8% | remaining activity at 0.5 µM (STK32C/YANK3): 102% | remaining activity at 0.5 µM (PHKg1): 61.5% | remaining activity at 0.5 µM (GSK3a): 27.5% | remaining activity at 0.5 µM (ALK1/ACVRL1): 100% | remaining activity at 0.5 µM (MRCKa/CDC42BPA): 104% | remaining activity at 0.5 µM (IRR/INSRR): 73.6% | remaining activity at 0.5 µM (TNIK): 83.1% | remaining activity at 0.5 µM (PBK/TOPK): 100% | remaining activity at 0.5 µM (P38d/MAPK13): 84.7% | remaining activity at 0.5 µM (SRPK1): 101% | remaining activity at 0.5 µM (STK32B/YANK2): 92% | remaining activity at 0.5 µM (STK39/STLK3): 107% | remaining activity at 0.5 µM (CDC7/DBF4): 82.6% | remaining activity at 0.5 µM (ERK5/MAPK7): 88.2% | remaining activity at 0.5 µM (BMPR2): 71.1% | remaining activity at 0.5 µM (TSSK2): 95.2% | remaining activity at 0.5 µM (PAK6): 81.2% | remaining activity at 0.5 µM (CK1d): 78.7%

COc1cc(Nc2ncnc(Nc3cc4c(cn3)NC(=O)C(C)(C)O4)n2)cc(OC)c1OC [MT-SYK-03]
remaining activity at 0.5 µM (LIMK2): 84.9% | remaining activity at 0.5 µM (PLK3): 97.6% | remaining activity at 0.5 µM (AKT3): 103% | remaining activity at 0.5 µM (CDK4/cyclin D1; 500 nM, relative to DMSO): 109% | remaining activity at 0.5 µM (MLK1/MAP3K9): 21.5% | IC50 (MLK1/MAP3K9; [1]): 7.8 nM | remaining activity at 0.5 µM (STK25/YSK1): 105% | remaining activity at 0.5 µM (ROCK1): 95.1% | remaining activity at 0.5 µM (LIMK1): 11.4% | IC50 (LIMK1; [1]): 45 nM and 44.6 nM | remaining activity at 0.5 µM (ROCK2): 91.1% | remaining activity at 0.5 µM (PKCepsilon): 106% | remaining activity at 0.5 µM (BRSK2): 92.5% | remaining activity at 0.5 µM (PKCeta): 109% | remaining activity at 0.5 µM (PKG1a): 94.8% | remaining activity at 0.5 µM (RON/MST1R): 98.4% | remaining activity at 0.5 µM (SLK/STK2): 81% | Residual enzymatic activity (TIE2/TEK): 92.9% | remaining activity at 0.5 µM (GRK1): 105% | remaining activity at 0.5 µM (VRK1): 102% | remaining activity at 0.5 µM (STK32C/YANK3): 115% | remaining activity at 0.5 µM (PHKg1): 97.1% | remaining activity at 0.5 µM (GSK3a): 74.2% | remaining activity at 0.5 µM (ALK1/ACVRL1): 126% | remaining activity at 0.5 µM (MRCKa/CDC42BPA; 500 nM, relative to DMSO): 102% | remaining activity at 0.5 µM (IRR/INSRR): 89% | remaining activity at 0.5 µM (TNIK): 78.6% | remaining activity at 0.5 µM (PBK/TOPK): 102% | remaining activity at 0.5 µM (P38d/MAPK13): 119% | remaining activity at 0.5 µM (SRPK1): 108% | remaining activity at 0.5 µM (STK32B/YANK2): 103% | remaining activity at 0.5 µM (STK39/STLK3): 107% | remaining activity at 0.5 µM (CDC7/DBF4): 102% | remaining activity at 0.5 µM (ERK5/MAPK7): 92.2% | remaining activity at 0.5 µM (BMPR2): 90% | remaining activity at 0.5 µM (TSSK2): 106% | remaining activity at 0.5 µM (PAK6): 96.5% | remaining activity at 0.5 µM (CK1d): 86.5%
